According to US10131652B2, “Pyrimidinyloxy benzene derivatives as herbicides” (E. I. DU PONT DE NEMOURS AND COMPANY, priority 2014, dated 2018):

Experiments:
Type in all cases: in vivo
[1] = system: blackgrass (Alopecurus myosuroides); experiment: Test B postemergence plant response
Procedure, shortened: (§1)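 Visual injury ratings, 0 = no effect to 100 = complete control, versus untreated controls approximately 10 days after postemergence spraying in greenhouse. Plants were at one- to two-leaf stage, 2 to 10 cm tall, in loam soil/sand blend; a dash denotes no result.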

[2] = system: galium (catchweed bedstraw, Galium aparine); experiment: Test B postemergence plant response
Procedure, shortened: as §1

[3] = system: small-flower umbrella sedge (Cyperus difformis); experiment: Test C flooded paddy test plant response; conditions: Flood, 250 g ai/ha; scale of 0 to 100 where 0 is no effect and 100 is complete control; 13 to 15 days
Procedure, shortened: (§2)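 Two-leaf stage → flood to 3 cm → compound into water → hold depth, greenhouse 13–15 d → visual score vs controls (0 none, 100 complete control).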

[4] = system: barnyardgrass (Echinochloa crus-galli); experiment: Test C flooded paddy test plant response; conditions: Flood, 250 g ai/ha; scale of 0 to 100 where 0 is no effect and 100 is complete control; 13 to 15 days
Procedure, shortened: as §2

[5] = system: ducksalad (Heteranthera limosa); experiment: Test C flooded paddy test plant response; conditions: Flood, 250 g ai/ha; scale of 0 to 100 where 0 is no effect and 100 is complete control; 13 to 15 days
Procedure, shortened: as §2

[6] = system: rice (Oryza sativa); experiment: Test C flooded paddy test plant response; conditions: Flood, 250 g ai/ha; scale of 0 to 100 where 0 is no effect and 100 is complete control; 13 to 15 days
Procedure, shortened: as §2

[7] = system: kochia (Kochia scoparia); experiment: Test D postemergence plant response; conditions: for Kochia plant response rating: scale 0 to 100 (0 no effect, 100 complete control); for Plant response rating, Kochia: scale 0 to 100, 0 no effect, 100 complete control
From the text: (§3) At the same time, plants selected from these crop and weed species and also kochia (Kochia scoparia), wild oat (Avena fatua), and chickweed (common chickweed, Stellaria media) were planted in pots containing Redi-Earth® planting medium (Scotts Company, 14111 Scottslawn Road, Marysville, Ohio 43041) comprising spaghnum peat moss, vermiculite, wetting agent and starter nutrients and treated with postemergence applications of test chemicals formulated in the same manner. Plants ranged in height from 2 to 18 cm (1- to 4-leaf stage) for postemergence treatments. Treated plants and controls were maintained in a greenhouse for 13 to 15 days, after which time all species were compared to controls and visually evaluated. Plant response ratings, summarized in Table D, are based on a scale of 0 to 100 where 0 is no effect and 100 is complete control. A dash (-) response means no test result.

[8] = system: chickweed (common chickweed, Stellaria media); experiment: Test D postemergence plant response; conditions: for Chickweed plant response rating: scale 0 to 100 (0 no effect, 100 complete control); for Plant response rating, Chickweed: scale 0 to 100, 0 no effect, 100 complete control
From the text: as §3

[9] = system: wild oat (Avena fatua); experiment: Test D postemergence plant response; conditions: for Oat, Wild plant response rating: scale 0 to 100 (0 no effect, 100 complete control); for Plant response rating, Oat, Wild: scale 0 to 100, 0 no effect, 100 complete control
From the text: as §3

[10] = system: barnyardgrass (Echinochloa crus-galli); experiment: Test B pre-/postemergence plant response
Procedure, shortened: (§4)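 Visual injury scores on a 0–100 scale (100 = complete control) relative to untreated plants, taken about 10 days post-treatment in greenhouse. Treatments were a directed preemergence soil spray and a postemergence spray at one- to two-leaf stage, using surfactant-containing solvent formulation.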

[11] = system: kochia (Kochia scoparia); experiment: Test B pre-/postemergence plant response
Procedure, shortened: as §4

[12] = system: ragweed (common ragweed, Ambrosia elatior); experiment: Test B pre-/postemergence plant response
Procedure, shortened: as §4

[13] = system: corn (Zea mays); experiment: Test B pre-/postemergence plant response
Procedure, shortened: as §4

[14] = system: Italian ryegrass (Lolium multiflorum); experiment: Test B pre-/postemergence plant response
Procedure, shortened: as §4

[15] = system: giant foxtail (Setaria faberii); experiment: Test B pre-/postemergence plant response
Procedure, shortened: as §4

[16] = system: pigweed (Amaranthus retroflexus); experiment: Test B pre-/postemergence plant response
Procedure, shortened: as §4

[17] = system: wheat (Triticum aestivum); experiment: Test B pre-/postemergence plant response
Procedure, shortened: as §4

[18] = 125 g ai/ha, postemergence, 0 to 100 scale, 0 no effect, 100 complete control
[19] = Postemergence, 500 g ai/ha, 0 to 100 scale (0 no effect, 100 complete control)
[20] = Preemergence, 125 g ai/ha, 0 to 100 scale where 0 is no effect and 100 is complete control
[21] = Preemergence, 500 g ai/ha, 0 to 100 scale where 0 is no effect and 100 is complete control

For Cn1nnc(-c2ccccc2Oc2ncc(Br)cn2)n1 [Compound 50], the “Plant response rating, Blackgrass” value [1, 18] was 40, the “Plant response rating, Blackgrass” value [1, 19] was 60 and the “Plant response rating, Galium” value [2, 18] was 90. The “Plant response rating, Galium” value [2, 19] was 100, the “Sedge, Umbrella plant response rating” value [3] was 0 and the “Barnyardgrass plant response rating” value [4] was 0. For the same compound, the “Ducksalad plant response rating” value [5] was 30, the “Rice plant response rating” value [6] was 0 and the “Kochia plant response rating” value ([7]; 16 g ai/ha) was 0. For the same compound, the “Kochia plant response rating” value ([7]; 31 g ai/ha) was 0, the “Plant response rating, Kochia” value ([7]; 62 g ai/ha) was 5 and the “Plant response rating, Kochia” value ([7]; 125 g ai/ha) was 15. The “Chickweed plant response rating” value ([8]; 16 g ai/ha) was 0, the “Chickweed plant response rating” value ([8]; 31 g ai/ha) was 0 and the “Plant response rating, Chickweed” value ([8]; 62 g ai/ha) was 5. For the same compound, the “Plant response rating, Chickweed” value ([8]; 125 g ai/ha) was 5, the “Oat, Wild plant response rating” value ([9]; 16 g ai/ha) was 0 and the “Oat, Wild plant response rating” value ([9]; 31 g ai/ha) was 0. The “Plant response rating, Oat, Wild” value ([9]; 62 g ai/ha) was 0, the “Plant response rating, Oat, Wild” value ([9]; 125 g ai/ha) was 0 and the “Plant response rating, Barnyardgrass” value [10, 18] was 0. For the same compound, the “Plant response rating, Barnyardgrass” value [10, 19] was 0, the “Plant response rating, Barnyardgrass” value [10, 20] was 0 and the “Plant response rating, Barnyardgrass” value [10, 21] was 10. For the same compound, the “Plant response rating, Kochia” value [11, 18] was 60, the “Plant response rating, Kochia” value [11, 19] was 80 and the “Plant response rating, Kochia” value [11, 20] was 10. For the same compound, the “Plant response rating, Kochia” value [11, 21] was 60, the “Plant response rating, Ragweed” value [12, 18] was 20 and the “Plant response rating, Ragweed” value [12, 19] was 60. For the same compound, the “Plant response rating, Ragweed” value [12, 20] was 0, the “Plant response rating, Ragweed” value [12, 21] was 50 and the “Plant response rating, Corn” value [13, 18] was 0. The “Plant response rating, Corn” value [13, 19] was 0, the “Plant response rating, Ryegrass, Italian” value [14, 18] was 0 and the “Plant response rating, Ryegrass, Italian” value [14, 19] was 50. For the same compound, the “Plant response rating, Ryegrass, Italian” value [14, 20] was 20, the “Plant response rating, Ryegrass, Italian” value [14, 21] was 50 and the “Plant response rating, Foxtail, Giant” value [15, 18] was 0. The “Plant response rating, Foxtail, Giant” value [15, 19] was 10, the “Plant response rating, Foxtail, Giant” value [15, 20] was 0 and the “Plant response rating, Foxtail, Giant” value [15, 21] was 50. For the same compound, the “Plant response rating, Pigweed” value [16, 18] was 70, the “Plant response rating, Pigweed” value [16, 19] was 100 and the “Plant response rating, Pigweed” value [16, 20] was 60. For the same compound, the “Plant response rating, Pigweed” value [16, 21] was 100, the “Plant response rating, Wheat” value [17, 18] was 0 and the “Plant response rating, Wheat” value [17, 19] was 20.
